In US20090203725A1, “Androgen Receptor Modulator Compounds and Methods” (priority 2005, published 2009):
Where two headings read alike, the source gives them in different places.

Target: T1, hAR (Homo sapiens, UniProt P10275)
T1 construct: expressed in transfected cells; host or cells: COS-1 cells transiently transfected with pRShAR, pRS-β-Gal and pGEM
T1 sequence (P10275 1-920): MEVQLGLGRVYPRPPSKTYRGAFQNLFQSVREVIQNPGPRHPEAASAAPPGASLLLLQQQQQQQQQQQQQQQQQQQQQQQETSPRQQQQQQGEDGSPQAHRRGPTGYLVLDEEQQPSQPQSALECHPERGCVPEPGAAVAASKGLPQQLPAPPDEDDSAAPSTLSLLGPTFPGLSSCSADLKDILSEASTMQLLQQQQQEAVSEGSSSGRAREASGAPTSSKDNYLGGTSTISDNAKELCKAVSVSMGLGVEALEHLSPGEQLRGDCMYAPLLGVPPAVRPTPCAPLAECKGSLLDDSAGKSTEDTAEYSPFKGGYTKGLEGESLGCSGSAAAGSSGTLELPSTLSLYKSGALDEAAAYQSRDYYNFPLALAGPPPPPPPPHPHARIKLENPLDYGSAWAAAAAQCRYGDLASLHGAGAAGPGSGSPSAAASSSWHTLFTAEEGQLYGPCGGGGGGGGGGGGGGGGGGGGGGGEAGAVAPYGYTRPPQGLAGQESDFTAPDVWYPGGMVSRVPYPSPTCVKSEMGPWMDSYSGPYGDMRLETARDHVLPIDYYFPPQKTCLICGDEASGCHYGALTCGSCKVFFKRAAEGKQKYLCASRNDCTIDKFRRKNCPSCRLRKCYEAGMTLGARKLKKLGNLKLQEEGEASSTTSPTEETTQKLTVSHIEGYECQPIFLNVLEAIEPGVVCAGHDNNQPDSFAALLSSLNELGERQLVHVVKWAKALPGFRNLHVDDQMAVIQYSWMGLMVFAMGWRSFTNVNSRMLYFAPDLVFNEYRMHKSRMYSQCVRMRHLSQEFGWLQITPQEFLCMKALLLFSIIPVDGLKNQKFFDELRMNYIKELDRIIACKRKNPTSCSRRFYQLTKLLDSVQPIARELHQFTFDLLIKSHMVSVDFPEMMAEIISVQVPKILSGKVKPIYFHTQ
Assay: IR Binding Assay: displacement of 3H-DHT in COS-1 cells transfected with pRShAR
Experimental: COS-1 cells in 96-well microtiter plates containing DMEM-10% FBS were transfected using standard techniques with plasmids pRShAR (2 ng/well), pRS-β-Gal (50 ng/well) and pGEM (48 ng/well). Six hours after transfection, media was removed, the cells were washed with PBS and fresh media was added. Twenty-four hours later, the media was changed to serum free DMEM and the cells were incubated for twenty-four hours.
Three replicates were used for each sample.
After three hours at 37° C., aliquots of media from each well of both test plates and control plates were removed to estimate the amount of free ^3H-DHT. The remaining media was removed, the cells were washed three times with PBS, and cells were lysed with a Triton X-100-based buffer. The lysates were assayed for amount of bound ^3H-DHT and β-Gal activity using a scintillation counter and spectrophotometer, respectively.
Determination of Kd for ^3H-DHT. Total binding was defined as binding of ^3H-DHT in the absence of 100 molar excess of unlabeled DHT in the control plate. […] binding was defined as binding of ^3H-DHT in the presence of 100 molar excess of unlabeled DHT in the control plate. Specific binding was defined as the difference between the total binding and the nonspecific binding, normalized by the β-Gal rate. Specific binding was used in Scatchard analysis to determine the Kd for ^3H-DHT.
Test Compounds. To determine binding affinity (Ki) for test compounds, the data from each concentration of test compound was calculated as a percentage of the signal for the sample with no test compound. […] The Ki values were determined by the Cheng-Prusoff equation, where: […]

[1] = 1 nM 3H-DHT, transfected COS-1 cells, 3 hours at 37° C., Cheng-Prusoff, read-out: Binding to hAR (Ki value ranges)

| Structure (SMILES) | Ki | Ki [1] |
| --- | --- | --- |
| COc1c(OC(=O)C(C)(C)C)ccc2oc(=O)c3c(ccc4[nH]c(=O)cc(C)c43)c12 [Compound 102, 2,2-Dimethylpropionic acid 10-methoxy-4-methyl-2,5-dioxo-2,5-dihydro-1H-6-oxa-1-aza-chrysen-9-yl ester] | 10 to 50 nM |  |
| CCOc1ccc2oc(=O)c3c(ccc4c3c(C)cc(=O)n4CC)c2c1OC [Compound 122, 9-Ethoxy-1-ethyl-10-methoxy-4-methyl-1H-6-oxa-1-aza-chrysene-2,5-dione] |  | > 50 nM |
| COc1ccc2oc(=O)c3c(ccc4[nH]c(=O)cc(C)c43)c2c1 [Compound 103, 9-Methoxy-4-methyl-1H-6-oxa-1-aza-chrysene-2,5-dione] |  | > 50 nM |
| COc1cccc2c1-c1ccc3[nH]c(=O)cc(C)c3c1C(C)(OC)O2 (racemic) [Compound 108, (±)-5,10-Dimethoxy-4,5-dimethyl-1H,5H-6-oxa-1-azachrysen-2-one] |  | > 50 nM |
| COc1cccc2oc(=O)c3c(C)c([N+](=O)[O-])ccc3c12 [Compound 130, 1-Methoxy-7-methyl-8-nitrobenzo[c]coumarin] |  | > 50 nM |
| COc1c(O)ccc2c1-c1ccc3[nH]c(=O)cc(C)c3c1C(OC)O2 (racemic) [Compound 118, (±)-9-Hydroxy-5,10-dimethoxy-4-methyl-1H,5H-6-oxa-1-aza-chrysen-2-one] |  | > 50 nM |
| COc1cccc2c1-c1ccc3[nH]c(=O)cc(C(F)(F)F)c3c1C(O)O2 (racemic) [Compound 114, (±)-5-Hydroxy-10-methoxy-4-trifluoromethyl-1H,5H-6-oxa-1-aza-chrysen-2-one] | > 50 nM |  |
| COc1cccc2c1-c1ccc3[nH]c(=O)cc(C)c3c1C(=O)OC2 [Compound 123, 4-Methoxy-10-methyl-7,13-dihydro-12-oxa-7-aza-benzo[3,4]cyclohepta[1,2-α]-naphthalene-8,11-dione] |  | > 50 nM |
| COc1cccc2c1-c1ccc3[nH]c(=O)cc(C)c3c1CO2 [Compound 109, 10-Methoxy-4-methyl-1H,5H-6-oxa-1-azachrysen-2-one] |  | > 50 nM |
| COc1cccc2c1-c1ccc3[nH]c(=O)cc(C(F)(F)F)c3c1OC2 [Compound 127, 10-Methoxy-4-trifluoromethyl-1,6-dihydro-5-oxa-1-azachrysen-2-one] | 10 to 50 nM |  |
| COc1cccc2c1-c1ccc3[nH]c(=O)cc(C(F)(F)F)c3c1CO2 [Compound 113] | 10 to 50 nM |  |
| COc1c(OC(C)C)ccc2oc(=O)c3c(ccc4[nH]c(=O)cc(C)c43)c12 [Compound 120, 9-Isopropoxy-10-methoxy-4-methyl-1H-6-oxa-1-aza-chrysene-2,5-dione] |  | 10 to 50 nM |
| CC(C)(C)C(=O)Oc1cccc2c1-c1ccc3[nH]c(=O)cc(C(F)(F)F)c3c1CO2 [Compound 116, 2,2-Dimethyl-propionic acid 2-oxo-4-trifluoromethyl-2,5-dihydro-1H-6-oxa-1-aza-chrysen-10-yl ester] | < 10 nM |  |
| COc1cccc2c1-c1ccc3[nH]c(=O)cc(C)c3c1C(C)O2 (racemic) [Compound 107, (±)-10-Methoxy-4,5-dimethyl-1H,5H-6-oxa-1-aza-chrysen-2-one] | > 50 nM |  |
| COc1c(O)ccc2c1-c1ccc3[nH]c(=O)cc(C)c3c1CO2 [Compound 119, 9-Hydroxy-10-methoxy-4-methyl-1H,5H-6-oxa-1-aza-chrysen-2-one] |  | < 10 nM |
| COc1cccc2c(=O)oc3c(ccc4[nH]c(=O)cc(C(F)(F)F)c43)c12 [Compound 126, 10-Methoxy-4-trifluoromethyl-1H-5-oxa-1-azachrysene-2,6-dione] | 10 to 50 nM |  |
| O=c1cc(C(F)(F)F)c2c3c(ccc2[nH]1)-c1c(O)cccc1OC3 [Compound 115, 10-Hydroxy-4-trifluoromethyl-1H,5H-6-oxa-1-aza-chrysen-2-one] | < 10 nM |  |
| Cc1c([N+](=O)[O-])ccc2c1c(=O)oc1cccc(O)c12 [Compound 129, 1-Hydroxy-7-methyl-8-nitrobenzo[c]coumarin] |  | < 10 nM |
| Cc1cc(=O)[nH]c2ccc3c4c(CO)cccc4oc(=O)c3c12 [Compound 124, 10-Hydroxymethyl-4-methyl-1H-6-oxa-1-aza-chrysene-2,5-dione] | 10 to 50 nM |  |
| COC(=O)c1cccc2oc(=O)c3c(ccc4[nH]c(=O)cc(C)c43)c12 [Compound 111, 4-Methyl-2,5-dioxo-2,5-dihydro-1H-6-oxa-1-aza-chrysene-10-carboxylic acid methyl ester] |  | > 50 nM |
| CCOc1ccc2oc(=O)c3c(ccc4[nH]c(=O)cc(C)c43)c2c1OC [Compound 121, 9-Ethoxy-10-methoxy-4-methyl-1H-6-oxa-1-aza-chrysene-2,5-dione] |  | > 50 nM |
| Cc1cc(=O)[nH]c2ccc3c4c(OC(=O)C(C)(C)C)cccc4oc(=O)c3c12 [Compound 104, 2,2-Dimethylpropionic acid 4-methyl-2,5-dioxo-2,5-dihydro-1H-6-oxa-1-aza-chrysen-10-yl ester] |  | < 10 nM |
| COc1c(O)ccc2oc(=O)c3c(ccc4[nH]c(=O)cc(C)c43)c12 [Compound 117, 9-Hydroxy-10-methoxy-4-methyl-1H-6-oxa-1-aza-chrysene-2,5-dione] |  | < 10 nM |
| COc1cccc2c1-c1ccc3[nH]c(=O)cc(C)c3c1C(O)O2 (racemic) [Compound 105, (±)-5-Hydroxy-10-methoxy-4-methyl-1H,5H-6-oxa-1-aza-chrysen-2-one] |  | > 50 nM |
